Reference: the NIST ThermoML archive (doi:10.1021/je0604232)

Assay: molar heat capacity at constant pressure; xn = mol fraction of the nth substance listed
Settings: 101 kPa, Liquid

CNCCO [2-(methylamino)ethanol] + O
molar heat capacity at constant pressure [J/K/mol]
Settings | x1 = 0.1 | x1 = 0.1998 | x1 = 0.3003 | x1 = 0.399 | x1 = 0.5002 | x1 = 0.6061 | x1 = 0.6987 | x1 = 0.8003 | x1 = 0.9004 | x1 = 1
303.15 K | 96 | 108 | 119 | 129 | 139 | 151 | 160 | 172 | 182 | 194
308.15 K | 98 | 111 | 122 | 132 | 143 | 155 | 165 | 176 | 187 | 199
313.15 K | 99 | 113 | 124 | 135 | 146 | 157 | 167 | 178 | 189 | 200
318.15 K | 100 | 114 | 126 | 137 | 148 | 160 | 170 | 180 | 190 | 202
323.15 K | 101 | 116 | 128 | 139 | 150 | 162 | 172 | 183 | 192 | 203
328.15 K | 103 | 118 | 131 | 142 | 153 | 165 | 175 | 185 | 195 | 205
333.15 K | 105 | 121 | 134 | 145 | 157 | 168 | 178 | 188 | 197 | 206
338.15 K | 107 | 124 | 138 | 149 | 161 | 172 | 182 | 191 | 199 | 207
343.15 K | 110 | 127 | 141 | 153 | 164 | 176 | 185 | 194 | 201 | 208
348.15 K | 114 | 132 | 146 | 158 | 169 | 181 | 190 | 198 | 205 | 210
353.15 K | 119 | 138 | 152 | 163 | 174 | 186 | 195 | 203 | 208 | 212

NCCNCCO [N-(2-aminoethyl)ethanolamine] + O
molar heat capacity at constant pressure [J/K/mol]
Settings | x1 = 0.0999 | x1 = 0.1999 | x1 = 0.2995 | x1 = 0.4 | x1 = 0.5002 | x1 = 0.5997 | x1 = 0.7011 | x1 = 0.8003 | x1 = 0.8979 | x1 = 1
303.15 K | 100 | 121 | 141 | 161 | 181 | 201 | 221 | 240 | 258 | 279
308.15 K | 103 | 125 | 145 | 165 | 185 | 205 | 226 | 245 | 263 | 284
313.15 K | 104 | 127 | 147 | 167 | 187 | 207 | 227 | 247 | 265 | 285
318.15 K | 106 | 129 | 150 | 170 | 190 | 209 | 229 | 249 | 266 | 286
323.15 K | 107 | 131 | 152 | 172 | 192 | 211 | 231 | 250 | 267 | 287
328.15 K | 110 | 134 | 155 | 175 | 195 | 214 | 233 | 252 | 269 | 289
333.15 K | 112 | 137 | 158 | 178 | 197 | 216 | 235 | 254 | 271 | 290
338.15 K | 116 | 141 | 162 | 181 | 201 | 219 | 238 | 257 | 273 | 292
343.15 K | 120 | 146 | 167 | 185 | 204 | 223 | 241 | 260 | 275 | 293
348.15 K | 124 | 152 | 172 | 189 | 208 | 227 | 244 | 262 | 277 | 295
353.15 K | 130 | 158 | 177 | 194 | 213 | 231 | 248 | 265 | 279 | 296
